These results are taken from patent US20130202629A1, “USES OF PHOSPHOLIPID CONJUGATES OF SYNTHETIC TLR7 AGONISTS” (The Regents of the University of California, priority 2010, published 2013).

Data set [1] addresses T1, TLR7 (Homo sapiens, UniProt Q9NYK1).
T1 sequence (Q9NYK1 27-1049): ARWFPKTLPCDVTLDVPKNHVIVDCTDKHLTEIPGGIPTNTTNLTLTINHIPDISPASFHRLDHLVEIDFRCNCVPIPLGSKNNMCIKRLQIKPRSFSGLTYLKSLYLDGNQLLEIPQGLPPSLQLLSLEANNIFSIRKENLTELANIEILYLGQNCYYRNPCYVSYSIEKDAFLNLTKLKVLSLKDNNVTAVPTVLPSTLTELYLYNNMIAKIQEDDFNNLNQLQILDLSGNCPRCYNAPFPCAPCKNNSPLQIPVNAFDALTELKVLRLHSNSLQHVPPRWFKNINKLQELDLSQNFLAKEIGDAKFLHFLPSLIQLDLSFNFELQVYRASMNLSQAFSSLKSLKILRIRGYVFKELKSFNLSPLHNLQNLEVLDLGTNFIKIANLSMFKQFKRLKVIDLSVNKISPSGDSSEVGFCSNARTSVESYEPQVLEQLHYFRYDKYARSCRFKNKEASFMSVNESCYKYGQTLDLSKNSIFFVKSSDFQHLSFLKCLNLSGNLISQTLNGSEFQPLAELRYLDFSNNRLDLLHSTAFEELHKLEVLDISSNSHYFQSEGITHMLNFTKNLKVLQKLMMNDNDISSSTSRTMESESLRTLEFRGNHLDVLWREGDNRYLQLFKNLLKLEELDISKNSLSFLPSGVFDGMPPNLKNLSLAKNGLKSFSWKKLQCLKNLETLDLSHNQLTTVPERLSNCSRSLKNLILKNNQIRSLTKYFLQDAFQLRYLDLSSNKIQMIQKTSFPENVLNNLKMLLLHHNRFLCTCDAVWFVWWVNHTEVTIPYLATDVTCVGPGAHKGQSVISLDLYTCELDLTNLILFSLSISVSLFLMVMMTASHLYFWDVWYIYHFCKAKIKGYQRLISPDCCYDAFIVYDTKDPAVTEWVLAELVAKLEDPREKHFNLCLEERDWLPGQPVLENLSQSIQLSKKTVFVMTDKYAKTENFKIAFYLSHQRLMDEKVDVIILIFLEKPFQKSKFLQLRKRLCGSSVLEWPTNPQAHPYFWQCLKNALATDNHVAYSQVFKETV
Briefly: Cytokine induction (IL-6, IFNalpha1; Luminex) in human PBMC. The following applies: 18 hours, IL-6 (FIG. 3A). In kind it is cell-based.

Another data set concerns C57BL/6 mice. The data set can be described thus: In vivo kinetics of serum pro-inflammatory cytokine induction after intravenous injection. Details: species or system mouse. The following applies: i.v., 200 nmol per animal. The protocol:
The mice were intravenously injected with TLR7 agonists and their conjugates (40 nmol compound (4a) or 200 nmol SM and compounds (6), (8), or (9) per mouse). Blood samples were collected 2, 4, 6, 24 or 48 hours after injections. Sera were separated and kept at −20° C. until use. The levels of cytokines (e.g. IL-6 and TNF-α in the sera were measured by Luminex bead microassay, and the results presented in FIGS. 4A-B. Data are mean±SEM of five mice and are representative of two independent experiments. The minimum detection levels of IL-6 and TNF-α are 5 pg/mL and 10 pg/mL, respectively.
Cytokine induction by compounds (4a), (6), and (9), were sustained for up to 6 hours.

Data set [2] concerns the target T2, TLR7 (Mus musculus, UniProt P58681).
T2 construct: BMDM were prepared from C57BL/6 and TLR7 deficient mice; endogenous in cells; host or cells: RAW264.7 (ATCC); bone marrow derived macrophages from C57BL/6 mice
T2 sequence (P58681 27-1050): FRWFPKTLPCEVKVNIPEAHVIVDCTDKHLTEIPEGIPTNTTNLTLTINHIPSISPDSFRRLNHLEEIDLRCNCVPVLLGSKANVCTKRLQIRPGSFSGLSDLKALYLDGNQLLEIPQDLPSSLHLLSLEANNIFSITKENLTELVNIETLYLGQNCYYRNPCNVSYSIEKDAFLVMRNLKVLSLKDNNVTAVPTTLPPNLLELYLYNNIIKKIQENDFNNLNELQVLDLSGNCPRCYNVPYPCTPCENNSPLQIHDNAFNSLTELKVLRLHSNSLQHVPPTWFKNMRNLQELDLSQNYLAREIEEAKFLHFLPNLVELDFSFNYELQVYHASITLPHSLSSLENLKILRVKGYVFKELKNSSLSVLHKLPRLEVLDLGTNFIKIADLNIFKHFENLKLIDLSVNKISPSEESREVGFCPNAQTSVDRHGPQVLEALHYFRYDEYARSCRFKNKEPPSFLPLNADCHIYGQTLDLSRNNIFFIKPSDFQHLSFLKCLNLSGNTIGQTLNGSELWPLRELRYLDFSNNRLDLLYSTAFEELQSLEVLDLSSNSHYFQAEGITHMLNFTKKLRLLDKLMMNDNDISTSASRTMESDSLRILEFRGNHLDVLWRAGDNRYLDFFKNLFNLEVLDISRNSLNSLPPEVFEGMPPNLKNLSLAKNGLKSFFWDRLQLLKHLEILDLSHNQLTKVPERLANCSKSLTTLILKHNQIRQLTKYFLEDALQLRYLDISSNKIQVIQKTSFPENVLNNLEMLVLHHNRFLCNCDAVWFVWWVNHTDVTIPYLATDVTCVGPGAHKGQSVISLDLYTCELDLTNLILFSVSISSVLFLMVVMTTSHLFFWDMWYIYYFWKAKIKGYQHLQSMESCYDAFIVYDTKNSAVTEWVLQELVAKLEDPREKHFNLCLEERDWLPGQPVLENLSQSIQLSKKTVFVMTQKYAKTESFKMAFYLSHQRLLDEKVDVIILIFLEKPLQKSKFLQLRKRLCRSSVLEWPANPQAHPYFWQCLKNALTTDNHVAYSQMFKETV
The data set can be described thus: In vitro cytokine induction (TNF-alpha, IL-6, IL-12; ELISA) in murine macrophages: RAW264.7 cells and BMDM. The data set is classed as cell-based. Particulars: RAW264.7 and BMDM, 18 hours; b281 also in vivo. As to the method: In vitro measurements of cytokine induction were performed using the mouse leukemic monocyte macrophage cell line, RAW264.7. […] BMDM were prepared from C57BL/6 and TLR7 deficient mice as described in Wu, C. C et al., “Immunotherapeutic activity of a conjugate of a Toll-like receptor 7 ligand”, Proc. Natl. Acad. Sci. USA, 104:3990 (2007).
In general, RAW264.7 cells or BMDM were incubated with various concentrations of conjugates for 18 hours at 37° C., 5% CO2 and culture supernatants were collected. The levels of cytokines (IL-6, IL-12 or TNF-α in the supernatants were determined by ELISA (BD Biosciences Pharmingen, La Jolla, Calif.) (Cho, H. J et al., “Immunostimulatory DNA-based vaccines induce cytotoxic lymphocyte activity by a T-helper cell-independent mechanism” [see comments], Nat. Biotechnol., 18:509 (2000)), and the results presented in FIGS. 2A-D. Data are mean±SEM of triplicates and are representative of three independent experiments. Minimum detection levels of these cytokines were 15 pg/mL.
TNFα levels were measured (see FIG. 2A) by incubating approximately 1×10^6/mL RAW 264.7 cells with the various conjugates or controls, as described above. IL-6 and IL-12 levels were measured (see FIGS. 2B-D) by incubating 0.5×10^6/mL BMDM with the various conjugates or controls, as described above. […]
On the technique in general: ELISA stands for enzyme-linked immunosorbent assay.

The nature of a further data set: Solubility. The data set is classed as physicochemical. Particulars: aqueous solution / suitable solvents for testing.
Data set [3] relates to TLR7. The data set can be described thus: IL-12 and IL-6 induction in BMDM from wild type and TLR7 deficient mice. In kind it is cell-based, mouse. The following applies: BMDM from TLR7 deficient (TLR7-KO) mice.
The next data set has as its system mice. The following applies: cited from earlier work.

“And” between values parts separate entries of the source, which are not always exact repeats. Equal values may be shown once. “Also recorded” adds a separate entry of the source.

Consider `COCCOc1nc(N)c2nc(O)n(Cc3ccc(C(=O)NCCOCCOCCOCCOCCOCCOCCOCCOCCOCCOCCn4cc(CCC(=O)O)nn4)cc3)c2n1` [Compound 8, 3-(1-(1-(4-((6-amino-8-hydroxy-2-(2-methoxyethoxy)-9H-purin-9-yl)methyl)phenyl)-1-oxo-5,8,11,14,17,20,23,26,29,32-decaoxa-2-azatetratriacontan-34-yl)-1H-1,2,3-triazol-4-yl)propanoic acid], for which, on TLR7 [1], the “order of TLR7 conjugate potency” value is “(4b)>(6)>(9)>/=SM>(8) and 4b>6>9>SM=8”. For the same compound, in the data set on C57BL/6 mice, the “serum IL-6 induction” value is “only a low level of IL-6”. The “serum TNFα induction” value with C57BL/6 mice (any point post injection) was “no significant induction of TNFα”. Further, the “potency of cytokine induction compared to unconjugated TLR7 (SM), in words” value at TLR7 [2] is reported as “less potency compared to the unconjugated TLR7 (SM); also recorded: attenuated”. Also, in the data set “Solubility”, the “solubility, in words” value is on record as “solubility improves dramatically”. Moreover, the “IL-12 and IL-6 induction in TLR7 deficient BMDM” value with TLR7 [3] is “little or no IL-12 and IL-6”.

For `COCCOc1nc(N)c2nc(O)n(Cc3ccccc3)c2n1` [SM, 9-benzyl-8-hydroxy-2-(2-methoxyethoxy) adenine, reference compound], the “anorexic effects and hypothermia in mice” value in the data set with mice (mouse, in vivo) is “can induce anorexic effects and hypothermia”. Besides, in the data set with mice (mucosal administration), the “minimum dose that induced the anorectic reaction” value is 50 nmoles per mice. The “course of serum cytokine levels after injection, in words” value in the data set on C57BL/6 mice is “declined rapidly after 2 hours”. Moreover, the “solubility, in words” value in the data set “Solubility” is “insoluble in aqueous solution”. In addition, the “IL-12 and IL-6 induction in TLR7 deficient BMDM” value in the data set on TLR7 [3] is “little or no IL-12 and IL-6”.
